Common to all, as to assay type: biochemical
The target of one experiment is human cathepsin B (Homo sapiens, UniProt P07858). As to the kind of experiment: cathepsin B inhibition assay, fluorogenic substrate Cbz-Phe-Arg-AMC. The conditions noted are these: Table 2; enzyme from human liver tissue, 10 μM substrate; read-out: hCat B Ki. How it is done:
(§1) All assays for cathepsin K were carried out with human and rat recombinant enzyme. Assays for cathepsins S & V were also carried out with human recombinant enzyme. Assays for human cathepsins B, H, and L were carried out with enzyme, purchased from Athens Research and Technology, Inc., prepared from human liver tissue. Standard assay conditions for the determination of kinetic constants used a fluorogenic peptide substrate, typically (5S,8S)-13-amino-5-benzyl-13-imino-3-methylene-N-(4-methyl-2-oxo-2H-chromen-7-yl)-6-oxo-1-phenyl-2-oxa-4,7,12-triazatridecane-8-carboxamide (Cbz-Phe-Arg-AMC), and were determined in 100 mM sodium acetate at pH 5.5 containing 10 mM dithiothreitol and 120 mM sodium chloride. A stock substrate solution of Cbz-Phe-Arg-AMC was prepared at a concentration of 50 mM in dimethyl sulfoxide. This substrate was diluted into the assay for a final substrate concentration of 10 μM in the rat cathepsin K, human cathepsin K, and human cathepsin B assays; a final substrate concentration of 5 μM in the human cathepsin L assay; and a final substrate concentration of 2 μM in the human cathepsin V assay.
(§2) All assays contained 10% dimethyl sulfoxide. […] All assays were conducted at 30° C. Product fluorescence (excitation at 360 nm; emission at 440 nm, (except cathepsin H which used excitation at 340 nm; emission at 420 nm)) was monitored with a PerSeptive Biosystems Cytofluor II fluorescence plate reader. Product progress curves were generated over 2.3 h monitoring the formation of 7-amino-4-methylcoumarin product (or β-naphthalamide for cathepsin H).
(§3) Potential inhibitors were evaluated using the progress curve method. […] For those compounds whose progress curves were linear, the enzymatic activity (RATE) was plotted against the concentration of test compound, including inhibitor concentration of zero ([I]=0), and the IC50 determined from a fit of equation 1 to the data, RATE=Vmax/(1+([I]/IC50)) (1) where Vmax is the best fit estimate of the maximal enzymatic activity. Ki values were calculated from IC50 values using equation 2 assuming a competitive model.

For a further experiment, the target named is human cathepsin H (Homo sapiens, UniProt P09668). As to the kind of experiment: cathepsin H inhibition assay, substrate L-Arg-β-naphthalamide. The settings on record: Table 2; enzyme from human liver tissue, 50 μM substrate; read-out: hCat H Ki. As for the experimental part: as §1, with “assay. […]” for “assay.”
All assays contained 10% dimethyl sulfoxide. […] Product fluorescence (excitation at 360 nm; emission at 440 nm, (except cathepsin H which used excitation at 340 nm; emission at 420 nm)) was monitored with a PerSeptive Biosystems Cytofluor II fluorescence plate reader. […]
as §3

The target of a further experiment is T1, human cathepsin K (Homo sapiens, UniProt P43235).
T1 construct: The proform of cathepsin K was converted to mature cathepsin K by brief exposure to pH 4; made in house; host or cells: baculovirus; Trichoplusia ni High Five cells (virus raised in Sf-9)
T1 sequence (P43235 115-329): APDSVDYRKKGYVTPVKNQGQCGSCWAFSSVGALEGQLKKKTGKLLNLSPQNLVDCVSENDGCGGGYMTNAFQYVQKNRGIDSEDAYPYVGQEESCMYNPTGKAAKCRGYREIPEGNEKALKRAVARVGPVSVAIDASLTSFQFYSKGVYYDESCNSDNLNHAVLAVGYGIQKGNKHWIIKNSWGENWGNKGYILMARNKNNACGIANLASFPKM
In words: cathepsin K inhibition assay, fluorogenic substrate Cbz-Phe-Arg-AMC, progress curve method. The settings on record: human recombinant enzyme, 10 μM substrate. As for the experimental part:
as §1, with “Standard assay conditions for the determination of kinetic constants used a fluorogenic peptide substrate, typically (5S,8S)-13-amino-5-benzyl-13-imino-3-methylene-N-(4-methyl-2-oxo-2H-chromen-7-yl)-6-oxo-1-phenyl-2-oxa-4,7,12-triazatridecane-8-carboxamide (Cbz-Phe-Arg-AMC), and were determined in 100 mM sodium acetate at pH 5.5 containing 10 mM dithiothreitol and 120 mM sodium chloride.” left out
as §2
Two liters of Spodoptera frugiperda (Sf-9) cells (ATCC) were grown in Grace's Supplemented medium (Life Technologies) supplemented with 2 g/L glucose, 10% fetal bovine serum (HyClone) and 0.1% pluronic F-68 (Life Technologies). […] The cells continued to grow for 72 h post-infection, before the virus was harvested by centrifugation at 1400×g for 30 min.
One and one-half liters of Trichoplusia ni (T. ni) High Five (™) cells [JRH Biosciences, Woodland, Calif. […] Media were separated from cells at a rate of 1 L/min using the Centritech 100 (™) continuous-flow centrifuge (DuPont) operating at 200×g.
Protein Purification: Media (human and rat) were filtered through a Whatman 3 filter, and then loaded onto a 25 mL Poros HS II (26 mm×47 mm) cation exchange column equilibrated in 25 mM sodium acetate at pH 5.5 (equilibration buffer). The column was washed until the absorbance reached the baseline value, and then the protein was eluted with a linear gradient from 0-2 M sodium chloride in the equilibration buffer. Column fractions were analyzed by SDS-PAGE, N-terminal sequencing, and mass spectrometry. Fractions containing the proform of cathepsin K were pooled and frozen at −80° C. The proform was concentrated in an Amicon Centriprep 10 and fractionated with a Superdex 75 column (26 mm×600 mm, Pharmacia) equilibrated in 400 mM sodium chloride, 25 mM sodium acetate at pH 5.5.
Cathepsin K Activation: The proform of cathepsin K was converted to mature cathepsin K by brief exposure to pH 4 in the presence of 5 mM L-cysteine. Typically, 5 mM L-cysteine was added to 10 mL of approximately 1 mg/mL procathepsin K. One mL of this solution was diluted ten-fold into 450 mM sodium acetate at pH 4.0 containing 5 mM L-cysteine. This solution was reacted at 23° C. for 2 min before neutralization with 2 mL 1.8 M sodium acetate at pH 6.0. The neutralized sample was added to the remaining 9 mL of procathepsin K. The mixture was incubated at 4° C. for 2-3 days. The activated cathepsin K was chromatographed on a Poros HS II column as described above.
Potential inhibitors were evaluated using the progress curve method. Assays were carried out in the presence of variable concentrations of test compound. Reactions were initiated by addition of buffered solutions of inhibitor and substrate to enzyme. Data analysis was conducted according to one of two procedures depending on the appearance of the progress curves in the presence of inhibitors. […] Ki values were calculated from IC50 values using equation 2 assuming a competitive model.

A further experiment concerns the target human cathepsin L (Homo sapiens, UniProt P07711). As to the kind of experiment: cathepsin L inhibition assay, fluorogenic substrate Cbz-Phe-Arg-AMC. The conditions noted are these: Table 2; enzyme from human liver tissue, 5 μM substrate; read-out: hCat L Ki. How it is done: as §1, §2, §3
The mark [1] stands for this setting: Table 1, pH 5.5, 30° C., read-out: hcatK Ki.

Where two headings read alike, the source gives them in different places.

Sequence of human cathepsin H (P09668 116-335 limits assumed, other chains not shown): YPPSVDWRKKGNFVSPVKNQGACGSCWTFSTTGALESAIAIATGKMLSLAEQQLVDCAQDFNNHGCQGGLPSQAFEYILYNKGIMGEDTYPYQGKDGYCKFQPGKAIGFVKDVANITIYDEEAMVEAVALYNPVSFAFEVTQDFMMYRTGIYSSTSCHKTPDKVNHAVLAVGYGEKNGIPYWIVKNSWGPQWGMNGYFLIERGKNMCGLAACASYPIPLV
Sequence of human cathepsin L (P07711 114-288 limits assumed): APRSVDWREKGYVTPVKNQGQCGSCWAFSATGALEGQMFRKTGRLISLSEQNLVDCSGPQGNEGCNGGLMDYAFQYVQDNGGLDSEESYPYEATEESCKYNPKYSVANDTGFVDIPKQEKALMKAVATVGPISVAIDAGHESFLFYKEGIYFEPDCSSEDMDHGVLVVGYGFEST
Sequence of human cathepsin L (P07711 292-333 limits assumed): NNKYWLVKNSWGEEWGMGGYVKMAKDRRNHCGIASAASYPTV

Usually Ki stands for the dissociation constant of the complex between target and ligand, obtained from inhibition or displacement. Take `CCCC[C@H](NC(=O)OC1(Cc2ccccc2)CCCC1)C(=O)C(=O)N[C@@H](C)C(=O)OCc1ccccc1` [Example 3, Benzyl (2S)-2-{[(3S)-3-({[(1-benzylcyclopentyl)oxy]carbonyl}amino)-2-oxoheptanoyl]amino}propanoate]: the Ki at human cathepsin B is greater than 1000 nM; on human cathepsin H, greater than 1000 nM; at human cathepsin K (setting [1]), 10 to 100 nM; on human cathepsin K (Table 2, read-out: hCat K Ki) it was 10 to 100 nM; at human cathepsin L, greater than 1000 nM.
For the molecule `CCCC[C@H](NC(=O)OCC1(Cc2ccc(F)cc2)CCC1)C(=O)C(=O)Nc1n[nH]c2cc(Cl)ccc12` [Example 15, [1-(4-fluorobenzyl)cyclobutyl]methyl(1S)-1-[[(6-chloro-1H-indazol-3-yl)amino](oxo)acetyl]pentylcarbamate], the Ki was 100 to 1000 nM at human cathepsin B; 100 to 1000 nM on human cathepsin H; less than 1 nM on human cathepsin K (setting [1]); less than 1 nM at human cathepsin K (Table 2, read-out: hCat K Ki); 10 to 100 nM at human cathepsin L.
Turning to `CCCC[C@H](NC(=O)OC1(c2nc3ccccc3s2)CCCC1)C(=O)C(=O)Nc1ccn[nH]1` [Example 17, 1-(1,3-Benzothiazol-2-yl)cyclopentyl(1S)-1-[oxo(1H-pyrazol-3-ylamino)acetyl]pentylcarbamate], the Ki on human cathepsin B is greater than 1000 nM; at human cathepsin H it was greater than 1000 nM; on human cathepsin K (setting [1]), 1 to 10 nM; on human cathepsin K (Table 2, read-out: hCat K Ki) it was 1 to 10 nM; at human cathepsin L, 10 to 100 nM.

Values taken from patent US7282512B2, “Cycloalkyl ketoamides derivatives useful as cathepsin K inhibitors” (SmithKline Beecham Corporation, priority 2002, dated 2007).
